Patent publication US8338430B2, “N-substituted piperazines” (Dow AgroSciences, LLC., priority 2005, dated 2012)

Experiments:
Type in all cases: in vivo
[1] = tested on: beet armyworm (Spodoptera exigua) larvae; experiment: Beet armyworm mortality on artificial diet (LAPHEG); conditions: 168 h, 4000 μg/ml, with piperonyl butoxide (approx. 1:4), mortality seven days after treatment, read-out: LAPHEG: % mortality against beet armyworm on artificial diet
Protocol: (§1) The compounds identified in TABLE 2 were prepared using the procedures illustrated in the previous examples and these compounds were tested against beet armyworm, mosquito, fruit fly, and cotton aphid using protocols described after.
(§2) Compounds were evaluated on mosquito (Aedes aegypti) larvae, beet armyworm (Spodoptera exigua) larvae, fruit fly (Drosophila melanogaster) adults and cotton aphid (Aphis gossypi). Newly hatched mosquito larvae (about 50 larvae/well) in 96-well microtiter plates in 230 ul of water containing powdered liver/yeast extract (1 gr/100 ml) were treated with 20 ppm solution of the test compound. Following treatment the plates were covered with a lid and mortality was determined three days after treatment. Beet armyworm eggs (about 5 per well) were placed on artificial diet (in a 96-well microtiter plate) treated with a 4000 ppm solution of a test compound in combination with piperonyl butoxide (in approximate ratio of 1:4). After infestation, the plates were covered with a lid and mortality was determined seven days following treatment. Five-day old fruit fly adults (about 5/well) were placed in deep-well microtiter plates containing 250 ul/well of a 2% agar-10% sucrose mixture that had been treated with a 4000 ppm solution of a test compound. Following infestation, the plates were covered with a lid and mortality was determined three days after treatment. Treatments for the mosquito and armyworm were replicated six times each, that of the fruit fly three times each.

[2] = tested on: cotton aphid (Aphis gossypi); experiment: Cotton aphid foliar spray test on squash (CA 200); conditions: 72 h, squash cotyledons, 3 days, Corrected % Control (Abbott), read-out: CA 200: % control against cotton aphid in foliar spray tests
Protocol: The compounds identified in TABLE 2 were prepared using the procedures illustrated in the previous examples and these compounds were tested against beet armyworm, mosquito, fruit fly, and cotton aphid using protocols described after. […]
Squash with fully expanded cotyledon leaves were trimmed to one cotyledon per plant and infested with cotton aphid (wingless adult and nymph) 1 day prior to chemical application.
Each plant is examined before chemical application to ensure proper infestation (ca. 30-70 aphids per plant). Compounds (3 mg) were dissolved in 3 mL of acetone:methanol (50:50) solvent, forming stock solutions of 1000 ppm. The stock solutions were then diluted with 0.025% Tween 20 (in H2O) to make […]. A hand-held Devilbiss sprayer was used to apply the spray solutions until runoff to both sides of the squash cotyledon leaves. Four plants (4 replications) were used for each concentration of each compound. Reference plants (solvent check) were sprayed with 0.025% Tween 20 only. Treated plants were held in a holding room for 3 days at approximately 23° C. and 40% RH before the number of live aphids on each plant was recorded. Insecticidal activity was measured by Corrected % Control using Abbott's correction formula and presented in TABLE 2: Corrected % Control=100*(X−Y)/X • where X=No. of live aphids on solvent check plants • Y=No. of live aphids on treated plants

[3] = tested on: mosquito (Aedes aegypti) larvae; experiment: Mosquito larvae mortality (AEDSAE); conditions: 72 h, 20 μg/ml, mortality three days after treatment, read-out: AEDSAE: % mortality against mosquito larvae
Protocol: as §1, §2

[4] = tested on: fruit fly (Drosophila melanogaster) adults; experiment: Adult fruit fly mortality on artificial diet (DROSME); conditions: 72 h, 4000 μg/ml, mortality three days after treatment, read-out: DROSME: % mortality against adult fruit fly on artificial diet
Protocol: as §1, §2

[5] = tested on: Leptosphaeria nodorum=Stagnospora nodorum; experiment: Fungicidal test for LEPTNO, glume blotch of wheat, one day protectant; conditions: 24 h, wheat plants (variety Yuma), sprayed one day before inoculation
Protocol: (§3) The compounds identified in Table 4 were prepared using the procedures illustrated in the previous examples and these compounds were tested against wheat glume blotch and wheat leaf blotch using the protocols described herein. Fungicidal Test for […] Each pot contained 3-20 seedlings. These plants were sprayed until wet with the formulated test compound at a rate of 25 ppm. On the following day, the leaves were inoculated with an aqueous spore suspension of Leptosphaeria nodorum and the plants were kept in high humidity (one day in a dark dew chamber followed by four to seven days in a lighted dew chamber) to permit spores to germinate and infect the leaf. The plants were then transferred to a greenhouse until disease developed on untreated control plants.

[6] = tested on: Mycosphaerella graminicola=Septoria tritici; experiment: Fungicidal test for SEPTTR, speckled leaf blotch of wheat, one day protectant; conditions: 24 h, wheat plants (variety Monon), sprayed one day before inoculation
Protocol: as §3, with “Speckled Leaf Blotch of Wheat (Mycosphaerella graminicola=Septoria tritici; Bayer code […]): Wheat plants (variety Monon) were grown from seed in a greenhouse in 50% pasteurized soil/50% soil-less mix until the first true leaf was fully expanded, with 3-8 seedlings per pot.” for “Each pot contained 3-20 seedlings.”, “Septoria tritici” for “Leptosphaeria nodorum”, “leaf” for “leaf.”

Row | SMILES | mortality at 4000 µg/mL [1] [%] | pest or weed control at 200 ppm [2] [%] | mortality at 20 µg/mL [3] [%] | mortality at 4000 µg/mL [4] [%] | pest or weed control at 25 ppm [5] [%] | pest or weed control at 25 ppm [6] [%]
1 | FC(F)(F)c1ccccc1CCN1CCN(Cc2ccc3ccccc3c2)CC1 [Compound 80] | 26 to 49 | 26 to 49 | 1 to 25 | 1 to 25 | 50 to 100 | 50 to 100
2 | FC(F)(F)c1ccccc1CCN1CCN(Cc2ccc(Cl)s2)CC1 [Compound 81] | 1 to 25 | 50 to 100 | 1 to 25 | 1 to 25 | 50 to 100 | 50 to 100
3 | FC(F)(F)c1ccccc1CCN1CCN(Cc2csc3ccc(Cl)cc23)CC1 [Compound 88] | 1 to 25 | 50 to 100 | 1 to 25 | 1 to 25 | 1 to 25 | 50 to 100
4 | c1ccc(OCCN2CCN(Cc3ccccc3-c3ccccc3)CC2)cc1 [Compound 92] | 1 to 25 | 1 to 25 | 1 to 25 | 26 to 49 | 50 to 100 | 1 to 25
5 | c1ccc(CCN2CCN(Cc3ccccc3-c3ccccc3)CC2)cc1 [Compound 93] | 1 to 25 | 1 to 25 | 1 to 25 | 26 to 49 | 1 to 25 | 50 to 100
6 | CCOCCN1CCN(Cc2ccc(OCc3ccccc3)cc2)CC1 [Compound 109] | – | – | – | – | 1 to 25 | 50 to 100
7 | c1ccc(-c2ccccc2CN2CCN(CCc3ccccn3)CC2)cc1 [Compound 110] | – | – | – | – | 1 to 25 | 50 to 100
8 | c1ccc(COc2ccc(CN3CCN(CCOc4ccccc4)CC3)cc2)cc1 [Compound 111] | – | – | – | – | 50 to 100 | 50 to 100
9 | c1ccc(CCN2CCN(Cc3ccc(OCc4ccccc4)cc3)CC2)cc1 [Compound 112] | – | – | – | – | 1 to 25 | 50 to 100
10 | O=C(C1CC1)N1CCN(Cc2ccc(OCc3ccccc3)cc2)CC1 [Compound 114] | – | – | – | – | 1 to 25 | 50 to 100
11 | c1ccc(CCCN2CCN(Cc3ccc4ccccc4c3)CC2)cc1 [Compound 118] | – | – | – | – | 50 to 100 | 50 to 100
12 | FC(F)(F)c1ccccc1CCN1CCN(Cc2cccc(-n3cccc3)c2)CC1 [Compound 119] | – | – | – | – | 50 to 100 | 26 to 49
13 | CC(c1ccccc1)N1CCN(Cc2ccc3ccccc3c2)CC1 (centres unmarked) [Compound 187] | – | – | – | – | 50 to 100 | 50 to 100
14 | CC(c1ccccc1)N1CCN(Cc2cccc(-n3cccc3)c2)CC1 (centres unmarked) [Compound 234] | – | – | – | – | 50 to 100 | 1 to 25
15 | CC(c1ccccc1)N1CCN(Cc2csc3ccc(Cl)cc23)CC1 (centres unmarked) [Compound 236] | – | – | – | – | 50 to 100 | 1 to 25
